Like-named read-outs stand apart in the source and are kept apart here.
Legend:
[1] = tested on: TNFα; test: IRAK4 Monocyte TNFα Cell Based Assay (LPS-stimulated, TR-FRET TNFα detection); parameters: species or system human; conditions: Homo sapiens, Monocyte, read-out: EC50 MONO TNF HTRF
Method in brief: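 Monocytes (5,000 cells/well) treated with compound (0.1% DMSO) for 1 hour at 37° C, then stimulated with 50 pg/ml LPS for 4 hours. TNFα in medium quantified by TR-FRET two-antibody detection after overnight room-temperature incubation. Percent of control calculated against unstimulated (0%) and LPS-stimulated (100%) cells.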

[2] = target: T1, IRAK4 enzyme (Homo sapiens, UniProt Q9NWZ3); test: IRAK4 Biochemical Assay (TR-FRET, STK1 KinEASE); conditions: 500 μM ATP, Table 2 second part (compounds 33-343), read-out: IC50 IRAK4-HTBS
T1 construct: purchased Carna Biosciences, Chuo-ku, Kobe, Japan
T1 sequence (Q9NWZ3 1-460): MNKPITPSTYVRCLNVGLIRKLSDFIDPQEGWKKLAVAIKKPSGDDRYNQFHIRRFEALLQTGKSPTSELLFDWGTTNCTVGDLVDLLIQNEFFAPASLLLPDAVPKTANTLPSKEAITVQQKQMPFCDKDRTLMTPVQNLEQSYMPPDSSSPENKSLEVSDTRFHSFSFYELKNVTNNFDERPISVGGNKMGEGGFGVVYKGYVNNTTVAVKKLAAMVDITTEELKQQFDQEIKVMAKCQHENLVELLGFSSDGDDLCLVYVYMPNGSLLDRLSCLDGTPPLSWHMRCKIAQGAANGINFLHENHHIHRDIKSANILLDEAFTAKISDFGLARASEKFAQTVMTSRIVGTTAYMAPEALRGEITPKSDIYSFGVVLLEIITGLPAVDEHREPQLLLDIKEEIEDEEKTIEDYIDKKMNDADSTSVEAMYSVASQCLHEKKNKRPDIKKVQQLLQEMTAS
Method in brief: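 Human IRAK4 (0.75 nM) preincubated 15 min with compound and 2 μM STK1 peptide, then reacted 120 min at room temperature with 500 μM ATP in HEPES pH 7.0 buffer with MgCl2 and DTT. EDTA stop with Cryptate anti-phosphopeptide antibody and tracer, 60 min; TR-FRET read as 665/615 nm ratio.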

[3] = human monocytes, LPS-stimulated, Table 2 second part (compounds 33-343)

## CC(=O)N[C@H]1C[C@H](c2nnc(-c3cnc(-c4ccc5cc(C#N)cnn45)cc3NC3CCOCC3)s2)C1 [Example 201, N-((1r,3r)-3-(5-(6-(3-cyanopyrrolo[1,2-b]pyridazin-7-yl)-4-((tetrahydro-2H-pyran-4-yl)amino)pyridin-3-yl)-1,3,4-thiadiazol-2-yl)cyclobutyl)acetamide]
[1]; [3]
  EC50: 34.9 nM
[2]
  IC50: 1.17 nM

## CC(=O)N[C@@H]1[C@@H]2CCC[C@H]1CN(c1nnc(-c3cnc(-c4ccc5cc(C#N)cnn45)cc3NC(C)C)s1)C2 [Example 166, N-((1R,5S,9s)-3-(5-(6-(3-cyanopyrrolo[1,2-b]pyridazin-7-yl)-4-(isopropylamino)pyridin-3-yl)-1,3,4-thiadiazol-2-yl)-3-azabicyclo[3.3.1]nonan-9-yl)acetamide]
[1]; [3]
  EC50: 2.3 nM
[2]
  IC50: 0.66 nM

## COC(=O)N[C@H]1CC[C@H](Nc2cc(-c3ccc4cc(C#N)cnn34)ncc2-c2nnc([C@H]3CC[C@H](NC(C)=O)CC3)s2)CC1 [Example 34, methyl ((1R,4r)-4-((5-(5-((1r,4R)-4-acetamidocyclohexyl)-1,3,4-thiadiazol-2-yl)-2-(3-cyanopyrrolo[1,2-b]pyridazin-7-yl)pyridin-4-yl)amino)cyclohexyl)carbamate]
[1]; [3]
  EC50: 4.9 nM
[2]
  IC50: 0.55 nM

## CC(=O)N[C@@H]1[C@@H]2CC[C@H]1CN(c1nnc(-c3cnc(-c4ccc5cc(C#N)cnn45)cc3NC3CCOCC3)s1)C2 [Example 171, N-((1R,5S,8s)-3-(5-(6-(3-cyanopyrrolo[1,2-b]pyridazin-7-yl)-4-((tetrahydro-2H-pyran-4-yl)amino)pyridin-3-yl)-1,3,4-thiadiazol-2-yl)-3-azabicyclo[3.2.1]octan-8-yl)acetamide]
[1]; [3]
  EC50: 2.1 nM
[2]
  IC50: 0.46 nM

## CC(=O)N[C@H]1C[C@H](c2nnc(-c3cnc(-c4ccc5cc(C#N)cnn45)cc3NC(C)C)s2)C1 [Compound 278, N-((1r,3r)-3-(5-(6-(3-cyanopyrrolo[1,2-b]pyridazin-7-yl)-4-(isopropylamino)pyridin-3-yl)-1,3,4-thiadiazol-2-yl)cyclobutyl)acetamide]
[1]; [3]
  EC50: ≥ 10000 nM
[2]
  IC50: 0.07 nM

## CC(C)Nc1cc(-c2ccc3cc(C#N)cnn23)ncc1-c1nnc([C@H]2CC[C@H](NC(=O)C(C)(C)O)CC2)s1 [Example 315, N-((1r,4r)-4-(5-(6-(3-cyanopyrrolo[1,2-b]pyridazin-7-yl)-4-(isopropylamino)pyridin-3-yl)-1,3,4-thiadiazol-2-yl)cyclohexyl)-2-hydroxy-2-methylpropanamide]
[1]; [3]
  EC50: 10.9 nM
[2]
  IC50: 0.77 nM

## CC(C)Nc1cc(-c2ccc3cc(C#N)cnn23)ncc1-c1nnc(NCC(C)(C)O)s1 [Example 37, 7-(5-(5-((2-hydroxy-2-methylpropyl)amino)-1,3,4-thiadiazol-2-yl)-4-(isopropylamino)pyridin-2-yl)pyrrolo[1,2-b]pyridazine-3-carbonitrile]
[1]; [3]
  EC50: ≥ 10000 nM
[2]
  IC50: ≥ 1000 nM

## CC1(Nc2cc(-c3ccc4cc(C#N)cnn34)ncc2-c2nnc(N3C[C@H]4CC[C@@H](C3)[C@@H]4NC(=O)C(C)(C)O)s2)COC1 [Example 210, N-((1R,5S,8s)-3-(5-(6-(3-cyanopyrrolo[1,2-b]pyridazin-7-yl)-4-((3-methyloxetan-3-yl)amino)pyridin-3-yl)-1,3,4-thiadiazol-2-yl)-3-azabicyclo[3.2.1]octan-8-yl)-2-hydroxy-2-methylpropanamide]
[1]; [3]
  EC50: 2.8 nM
[2]
  IC50: 0.84 nM

## CNc1cc(-c2ccc3cc(C#N)cnn23)ncc1-c1nnc(N2C[C@H]3CC[C@@H](C2)[C@@H]3NC(C)=O)s1 [Compound 292, N-((1R,5S,8s)-3-(5-(6-(3-cyanopyrrolo[1,2-b]pyridazin-7-yl)-4-(methylamino)pyridin-3-yl)-1,3,4-thiadiazol-2-yl)-3-azabicyclo[3.2.1]octan-8-yl)acetamide]
[1]; [3]
  EC50: 6.7 nM
[2]
  IC50: 0.2 nM

## CCOC(=O)Cc1nnc(-c2cnc(-c3ccc4cc(C#N)cnn34)cc2NC(C)C)s1 [Example 318, ethyl 2-(5-(6-(3-cyanopyrrolo[1,2-b]pyridazin-7-yl)-4-(isopropylamino)pyridin-3-yl)-1,3,4-thiadiazol-2-yl)acetate]
[1]; [3]
  EC50: 102 nM
[2]
  IC50: 0.94 nM

## CC(C)Nc1cc(-c2ccc3cc(C#N)cnn23)ncc1-c1nnc(N2CCS(=N)(=O)CC2)s1 [Compound 262, 7-(5-(5-(1-imino-1-oxido-116-thiomorpholino)-1,3,4-thiadiazol-2-yl)-4-(isopropylamino)pyridin-2-yl)pyrrolo[1,2-b]pyridazine-3-carbonitrile]
[1]; [3]
  EC50: 69.9 nM
[2]
  IC50: 3.81 nM

## CC(=O)N[C@H]1CC[C@H](c2nnc(-c3cnc(-c4ccc5cc(C#N)cnn45)cc3NC3(C)CCOCC3)s2)CC1 [Compound 268, N-((1r,4r)-4-(5-(6-(3-cyanopyrrolo[1,2-b]pyridazin-7-yl)-4-((4-methyltetrahydro-2H-pyran-4-yl)amino)pyridin-3-yl)-1,3,4-thiadiazol-2-yl)cyclohexyl)acetamide]
[1]; [3]
  EC50: 14.1 nM
[2]
  IC50: 0.61 nM

## CC(C)Nc1cc(-c2ccc3cc(C#N)cnn23)ncc1-c1nnc(N2C[C@H]3CC[C@@H](C2)[C@@H]3NC(=O)C2(C)CCOCC2)s1 [Example 95, N-((1R,5S,8s)-3-(5-(6-(3-cyanopyrrolo[1,2-b]pyridazin-7-yl)-4-(isopropylamino)pyridin-3-yl)-1,3,4-thiadiazol-2-yl)-3-azabicyclo[3.2.1]octan-8-yl)-4-methyltetrahydro-2H-pyran-4-carboxamide]
[1]; [3]
  EC50: 4.1 nM
[2]
  IC50: 0.7 nM

## CC(=O)N[C@@H]1[C@@H]2CC[C@H]1CN(c1nnc(-c3cnc(-c4ccc5cc(C#N)cnn45)cc3NC3COC3)s1)C2 [Example 184, N-((1R,5S,8s)-3-(5-(6-(3-cyanopyrrolo[1,2-b]pyridazin-7-yl)-4-(oxetan-3-ylamino)pyridin-3-yl)-1,3,4-thiadiazol-2-yl)-3-azabicyclo[3.2.1]octan-8-yl)acetamide]
[1]; [3]
  EC50: 2.4 nM
[2]
  IC50: 0.54 nM

## CC(=O)N[C@@H]1[C@@H]2C[C@H]1CN(c1nnc(-c3cnc(-c4ccc5cc(C#N)cnn45)cc3NC(C)C)s1)C2 [Example 173, N-((1R,5S,6s)-3-(5-(6-(3-cyanopyrrolo[1,2-b]pyridazin-7-yl)-4-(isopropylamino)pyridin-3-yl)-1,3,4-thiadiazol-2-yl)-3-azabicyclo[3.1.1]heptan-6-yl)acetamide]
[1]
  EC50: 11.6 nM
[2]
  IC50: 1.52 nM

## CC(C)Nc1cc(-c2ccc3cc(C#N)cnn23)ncc1-c1nnc(N2C[C@H]3CC[C@@H](C2)[C@@H]3NC(=O)[C@H]2C[C@](C)(O)C2)s1 [Example 92, (1r,3R)-N-((1R,5S,8s)-3-(5-(6-(3-cyanopyrrolo[1,2-b]pyridazin-7-yl)-4-(isopropylamino)pyridin-3-yl)-1,3,4-thiadiazol-2-yl)-3-azabicyclo[3.2.1]octan-8-yl)-3-hydroxy-3-methylcyclobutane-1-carboxamide]
[1]; [3]
  EC50: 5 nM
[2]
  IC50: 1.72 nM

## CC(C)Nc1cc(-c2ccc3cc(C#N)cnn23)ncc1-c1nnc(N2C3CC2CN(C(=O)CN=S(C)(C)=O)C3)s1 [Compound 276, 7-(5-(5-(3-(2-((dimethyl(oxo)-16-sulfanylidene)amino)acetyl)-3,6-diazabicyclo[3.1.1]heptan-6-yl)-1,3,4-thiadiazol-2-yl)-4-(isopropylamino)pyridin-2-yl)pyrrolo[1,2-b]pyridazinc-3-carbonitrile]
[1]; [3]
  EC50: 7.8 nM
[2]
  IC50: 0.89 nM

— patent publication US12060351B2, “Thiadiazole IRAK4 inhibitors” (Gilead Sciences, Inc., priority 2018, dated 2024)
